PubChem BioAssay AID1963825 (Molecular Pharmacology Branch, DTP, NCI, 2024)
Several values for one entry are separate records, joined by “and”; a condition that tells them apart may be missing. Equal entries are not always repeated.

Experiment: Anticancer human tumor 997537-175-T-J1-PDC patient-derived colon adenocarcinoma cell line growth inhibition [POLQ]
Conditions: 997537-175-T-J1-PDC complex spheroid viability, combination with POLQ inhibitors; for viability, T/C: stronger effect = lower value
Protocol: Multicellular complex tumor spheroid response to Polymerase (POL) inhibitors (novobiocin, ART-558, RP6685) in combination with a variety of drugs and investigational agents in selected tumor cell lines
The POL inhibitors (novobiocin, ART-558, and RP6685) were evaluated both individually and in combination with standard of care and investigational anticancer small molecules within a complex spheroid model of solid tumors. . Complex spheroids include a stromal component modeled by human endothelial cells (HUVEC) and fibroblasts modeled by human mesenchymal stem cells (MSCs). The concentration ranges selected for each drug and investigational agent were based upon clinically achievable concentrations if the clinical Cmax of the agent was known.
Compounds. The drugs and investigational agents: novobiocin (NSC847541), ART-558 (NSC835418), RP-6685 (NSC848927), peposertib (NSC802822), ceralasertib (NSC780249), elimusertib (NSC800525), camonsertib (NSC841442), AZD-1390 (NSC803789), olaparib (NSC753686), talazoparib (NSC767125), rucaparib (NSC756644), sotorasib (NSC818433), MRTX-1133 (NSC836407), SN-38 (NSC673596), topotecan (NSC609699), epotoside (NSC141540), doxorubicin (NSC123127), gemcitabine (NSC613327), 5-fluorouracil (NSC19893), paclitaxel (NSC125973), vemurafenib (NSC761431), MSA-2 (NSC828583), SN-011 (NSC837082), adavosertib (NSC754352), prexasertib (NSC758257), carboplatin (NSC241240) and oxaliplatin (NSC266046), were obtained from the National Cancer Institute (NCI) Developmental Therapeutics Program Chemical Repository (21). The FDA-approved anticancer drug set is available from the Developmental Therapeutics Program at https://dtp.cancer.gov/organization/dscb/obtaining/. […] The stock solutions were prepared in dimethyl sulfoxide (DMSO, Sigma-Aldrich, St. Louis, MO, cat. D2650), except for the platinum compounds which were prepared in saline (Quality Biological, Gaithersburg, MD, cat. 114-055-101), at 800-fold the tested concentration and stored at -70 degrees C prior to their use. All drugs and investigational agents were tested over a range starting from a high concentration at or near the clinical Cmax and decreasing in half-log increments. If the clinical Cmax for an agent had not been determined, the highest concentration tested was 10 microM, except for SN-38, which was tested at a high concentration of 1 microM.
Cell Culture. All cells were maintained in an incubator at 37 degrees C and 5% CO2 with 95% humidity. The PDC lines were cultured according to standard operating procedures established by the NCI PDMR (https://pdmr.cancer.gov). Table 3 of the manuscript, lists the cell lines along with the number of the three cell types plated to form the mct-spheroids and media for tumor cell growth. After thawing, all PDC lines, except 997537-175-T-J1-PDC and 415267-285-R-J2-PDC, were cultured in Matrigel-coated flasks prepared with a working solution of 1X Ham's F-12 nutrient mix, without supplementation (Thermo Fisher Scientific, cat. 11765054), 100 U/mL penicillin-streptomycin (Thermo Fisher Scientific, cat. 15140122), and 2.5% Matrigel (Corning Inc., Corning, NY, cat. 354248) for the first three passages. The two PDC lines 997537-175-T-J1-PDC and 415267-285-R-J2-PDC were cultured on uncoated flasks. The 857933-349-R-J2-PDC line was cultured in 6C/Colon 1B media containing advanced DMEM/F-12 (Thermo Fisher Scientific, cat. 12634028), 10 mM HEPES (Thermo Fisher Scientific, cat. 15630080), 1X GlutaMAX supplement (Thermo Fisher Scientific, cat. 35050061), 0.1 mg/mL primocin (InvivoGen, San Diego, CA, cat. ant-pm-2), 10% defined fetal bovine serum, heat inactivated (HyClone Laboratories Inc., Logan, UT, cat. SH30070.03HI), 50% L-WRN conditioned media (ATCC, cat. CRL-3276), 1.25 mM N-Acetyl-L-cysteine (Sigma-Aldrich, cat. A9165), 10 mM nicotinamide (Sigma-Aldrich, cat. N0636), 1X B-27 supplement (Thermo Fisher Scientific, cat. 17504044), 1X N-2 supplement (Thermo Fisher Scientific, cat. […]
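Further: luminescence signal used as a surrogate for viable cells; spheroids exposed to drugs for seven days before readout.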

Structure (SMILES) | viability, T/C (compound 0.00316 µM) | viability, T/C (compound 0.01 µM) | viability, T/C (compound 0.0316 µM) | viability, T/C (compound 0.1 µM) | viability, T/C (compound 0.316 µM) | viability, T/C (compound 1 µM) | IC50 (curve of compound) | viability, T/C (compound 3.16 µM) | viability, T/C (compound 10 µM) | IC50 (compound alone, run of 11/27/2023) [µM]
C=CCn1c(=O)c2cnc(Nc3ccc(N4CCN(C)CC4)cc3)nc2n1-c1cccc(C(C)(C)O)n1 | 98.4% and 90.3% and 83.5% | 96.6% and 88.9% and 102% | 73.2% and 89.1% and 83.6% | 94% and 101% and 86.6% | 95.9% and 94.9% and 76.8% | 74.5% and 63.4% and 69.5% | > 1 µM |  |  | 
O=C(Nc1ccc(O)c(NS(=O)(=O)c2ccc(F)cc2)c1)c1ccc(-c2ccccc2)cc1 |  |  | 103% and 89.4% and 123% | 101% and 92.4% and 98.4% | 113% and 97.4% and 81.8% | 88.3% and 109% and 103% | > 10 µM | 99.2% and 116% and 91.7% | 98.9% and 103% and 91.2% | 
CCc1cc2c(N3CCc4c(cc(Cn5ccnc5)cc4-c4cn(C)nc4C(F)(F)F)C3=O)ccnc2c(OC)n1 |  |  | 95.3% and 92.8% and 103% | 79.7% and 104% and 98.2% | 98.5% and 76.2% and 96.9% | 84.6% and 90.4% and 91.4% | > 10 µM | 76.5% and 68.3% and 72.7% | 57.5% and 79.9% and 53.8% | 
C=CC(=O)N1CCN(c2nc(=O)n(-c3c(C)ccnc3C(C)C)c3nc(-c4c(O)cccc4F)c(F)cc23)C(C)C1 (centres undefined) |  |  | 88.3% and 103% and 94.8% | 92.3% and 93.2% and 91.2% | 92.7% and 102% and 101% | 99.6% and 91.8% and 112% | > 10 µM | 103% (2×) and 104% | 101% and 89.6% and 87.3% | 
COc1cccc(OCCCN)c1-c1cc(Nc2cnc(C#N)cn2)n[nH]1 | 96.8% and 107% and 96.1% | 106% and 98.4% and 92.4% | 54.1% and 72% and 72.3% | 52.4% and 57.1% and 43.6% | 24.1% and 36.5% and 25.2% | 25.2% and 27.3% and 13.4% | 0.0658 µM and 0.135 µM and 0.0801 µM |  |  | 
COC1C(OC(N)=O)C(O)C(Oc2ccc3c(O)c(NC(=O)c4ccc(O)c(CC=C(C)C)c4)c(=O)oc3c2C)OC1(C)C (centres undefined) |  |  |  | 97.2% [middle of 13 runs] | 97.4% [middle of 13 runs] | 95.6% [middle of 13 runs] |  |  |  | > 10
